# Reference: patent publication US20260241046A1, “PROSTATE-SPECIFIC MEMBRANE ANTIGEN RECEPTOR-TARGETING RADIOPHARMACEUTICALS AND USES THEREOF” (Nuclidium AG, priority 2024, published 2026)
# Test system: LNCaP xenografted mice
# Assay: PET/CT imaging in mice
# Assay type: in vivo
# Protocol: Unless otherwise specified, the in vivo studies were performed on athymic nude Foxn1^nu 4-6-week-old mice. Animals were injected in the shoulder with LNCaP cells (10^7 cells/200 μL) suspended in 1:1 (v: v) EMEM EBS medium and Matrigel. The in vivo experiments were performed when tumors reached a volume between 100-500 mm^3. At the intervention, all mice were between 7 and 11 weeks old. All animal experiments were performed following the guidelines for the use of living animals in scientific studies and the Swiss regulations for the protection of animals.
# LNCap xenografted mice were injected i.v. into the tail vein with 4-8 MBq (400 pmol) of [^61Cu]Cu-NODAGA-PSMA I&T diluted in 100 μL saline solution. Dynamic PET scans were acquired for 1 hour upon injection of the radiotracer. The mice were euthanized using carbon dioxide at 4 hours post-injection, the bladder was mechanically emptied, and static PET scans were acquired for 30 min. PET images were obtained using the β-CUBE PET scanner system (MOLECUBES, Gent, Belgium) and were decay corrected and reconstructed with the VivoQuant software version 4.0. Tomograms and helical CT scans of the whole mouse were first acquired using a NanoSPECT/CTTM scanner (Bioscan Inc.). CT images were reconstructed using CTReco (version r1.146), resulting in a pixel size of 0.2 mm. […]
structure (smiles),measurement,value
O=C([O-])CN1CCN(CC(=O)[O-])CCN([C@H](CCC(=O)N[C@H](Cc2ccc(O)c(I)c2)C(=O)N[C@H](Cc2ccccc2)C(=O)N[C@H](CCCCNC(=O)CCCCCCC(=O)NCCCC[C@H](NC(=O)N[C@@H](CCC(=O)O)C(=O)O)C(=O)O)C(=O)O)C(=O)O)CC1.[61Cu+2] [[^61Cu]Cu-NODAGA-PSMA I&T],time of maximum accumulation in the tumor,1 hour post-injection
same,time of optimal tumor-to-background signal ratio,4 hours post-injection
